Reference: article PMC9763333, “In vitro characterization of immune modulating drug-eluting immunobeads towards transarterial embolization in cancer” (Scientific Reports, 2022)
Where “and” joins values, the source holds several entries; their conditions need not be identical. Identical values can stand only once. Entries after “also recorded” stand apart in the source; their conditions may differ.

Columns and labels:
Format in all cases: physicochemical
[1] = Washing of drug-loaded beads with deionized water and microscopic appearance
Experimental: (§1) Drug loading was performed in triplicate as previously reported[45] with slight modifications. […] Washing of beads is often a critical step in drug release studies as any drug left unbound to the beads affects the release profile and exaggerates the early burst release. […] However, washing was discontinued for TLR drugs as drug was continually observed even after multiple washes. […] The amount of drug loaded at the specified time points was calculated by subtracting the amount of drug remaining from the initial amount of drug in the loading solution and the cumulative amount of drug withdrawn for sampling. The maximum drug loaded in the beads was calculated once no further change in the concentration in the loading solution could be measured and before washing the beads. The relative percent drug loaded was defined as the maximum amount of drug loaded as a percent of the amount of SO3^- ions available in the beads on a molar basis using the following formula and the results are presented as the mean ± SD.

[2] = Drug release from DC Bead LUMI in saline; conditions: for release in saline from DC Bead LUMI after multiple washes in deionized water: single replicates
Experimental: […] Briefly, drug-loaded DC Bead LUMI or LC Bead (62.5 µL) were placed in vessels with 50 mL of saline ([…], pH 7.4) and were agitated with upright rocking motion at a set maximum rocking speed of 10 (70 rpm) for 144 h at 37 °C using Ward's® Rotating Mixer. At scheduled time intervals identical to the loading time points, 1 mL of release media was withdrawn and used for drug quantification. To maintain 50 mL total elution volume, 1 mL of fresh saline pre heated to 37 °C was replaced at each timepoint. […] 2.4. The cumulative amount of drug released at each time point was calculated by multiplying the concentration of each sample aliquot by the total volume (50 mL) of release media and adding the sum of the amount of drug removed for sampling at prior time points. […] The 50 mL volume was chosen to ensure infinite sink conditions where the maximum possible concentration of eluted drug would be at least 10 times more dilute than the maximum solubility. This ensures the rate of release is not affected by solution concentration but is only a function of interactions of the bead, drug, and saline.

[3] = Drug solubilization by salt formation in acid; conditions: T in °C in parentheses in the cell (20.1 or 21.1)
Experimental: The base form of each drug was suspended in deionized water and titrated with 0.1 N hydrochloric acid (Fisher Scientific, Hampton, NH) while stirring until all the base was solubilized and the volume adjusted to a final concentration of 2.5 mg/mL. The resulting solution was frozen, then lyophilized to yield solid drug-hydrochloride salt or used in its solubilized form for loading into DC Bead LUMI. […] Doxorubicin.HCl was readily solubilized and used without modification. […] A ZORBAX Eclipse Plus C8 reversed-phase column (Agilent) and UV detector at wavelength of 230 nm were used for GS-9620 analysis. The decomposition product of GS-9620 was analyzed with reversed phase high-performance liquid chromatography (Rp-HPLC) and LC/MS.

[4] = Drug loading into DC Bead LUMI
Experimental: as §1, with “DC Bead LUMI was analyzed for its elemental composition by MEDAC Inc. […] Drug” for “Drug”

- removal of drug from beads by repeated washing with deionized water ([1]; DC Bead LUMI): partially removed
- release behaviour in saline ([2]; DC Bead LUMI): rapid release
- pH at which each drug dissolved for loading [3]: 2.06 (20.1)
- Relative percent drug loaded in DC Bead LUMI over time ([4]; 5 min, single replicates): 27.7169% and 54.7567% and 47.2582%
- Relative percent drug loaded in DC Bead LUMI over time ([4]; 15 min, single replicates): 44.3244% and 64.1912% and 77.4846%
- Relative percent drug loaded in DC Bead LUMI over time ([4]; 30 min, single replicates): 53.7652% and 98.7583% and 64.7248%
- Relative percent drug loaded in DC Bead LUMI over time ([4]; 45 min, single replicates): 63.5604% and 86.8486% and 80.4348%
- Relative percent drug loaded in DC Bead LUMI over time ([4]; 60 min, single replicates): 62.6391% and 89.327% and 89.6722%
- Relative percent drug loaded in DC Bead LUMI over time ([4]; 120 min, single replicates): 76.6569% and 94.7702% and 91.6603%
- Relative percent drug loaded in DC Bead LUMI over time ([4]; 180 min, single replicates): 84.3868% and 95.4708% and 91.4628%
- Relative percent drug loaded in DC Bead LUMI over time ([4]; 240 min, single replicates): 88.4335% and 96.0638% and 91.7809%
- Relative percent drug loaded in DC Bead LUMI over time ([4]; 300 min, single replicates): 89.1562% and 94.7965% and 91.1063%
- Relative percent drug loaded in DC Bead LUMI over time ([4]; 360 min, single replicates): 89.8821% and 93.7278% and 90.6691%
- Relative percent drug loaded in DC Bead LUMI over time ([4]; 420 min, single replicates): 89.552% and 95.0881% and 90.3963%
- Relative percent drug loaded in DC Bead LUMI over time ([4]; 480 min, single replicates): 88.9036% and 95.9382% and 95.3273%
- Relative percent drug loaded in DC Bead LUMI over time ([4]; 1440 min, single replicates): 88.6238% and 94.7298% and 89.6159%
- Relative percent drug loaded in DC Bead LUMI over time ([4]; 2880 min, single replicates): 89.5863% and 97.1979% and 88.3669%
- Relative percent drug loaded in DC Bead LUMI over time ([4]; 4320 min, single replicates): 89.4163% and 95.3897% and 90.7133%
- Relative percent drug loaded in DC Bead LUMI over time ([4]; 8640 min, single replicates): 89.5369% and 92.0678% and 86.7361%
- loading behaviour ([4]; DC Bead LUMI): Fast loading
- Relative percent drug loaded (maximum, percent of SO3− available on a molar basis) ([4]; DC Bead LUMI, mean (n = 3)): 95% and 94.66%
- equivalent of drug loaded to sulfonated bead ([4]; DC Bead LUMI, mean ± SD): 0.27 ± 0.01 mM drug/ml beads
- Maximum drug loaded ([4]; DC Bead LUMI, mean ± SD, n = 3, base form except Dox (salt form)): 65.28 ± 3.09 mg drug/ml beads
- Maximum drug loaded (Triplicate), % ([4]; DC Bead LUMI, single replicates): 89.8821% and 98.7583% and 95.3273%
- Drug: sulfonate ([4]; molar ratio at maximum loading, DC Bead LUMI): 0.946
- Theoretical maximum loading level based on SO3− contents ([4]; per mL DC Bead LUMI, assuming 1:1 drug to sulfonate): 68.97 mg
Compound: CC(C)Cn1cnc2c(N)nc3ccccc3c21 [IMQ, imiquimod]
- aggregation of drug during washing / elution ([1]; deionized water and saline, microscopy): Aggregation of IMQ was observed; also recorded: formed aggregates; also recorded: exhibited aggregation
- release in saline from DC Bead LUMI after multiple washes in deionized water ([2]; 5 min): 3.738 mg/mL of beads and 1.905 mg/mL of beads and 0.7403 mg/mL of beads
- release in saline from DC Bead LUMI after multiple washes in deionized water ([2]; 15 min): 4.599 mg/mL of beads and 2.598 mg/mL of beads and 1.25 mg/mL of beads
- release in saline from DC Bead LUMI after multiple washes in deionized water ([2]; 30 min): 6.014 mg/mL of beads and 2.518 mg/mL of beads and 1.755 mg/mL of beads
- release in saline from DC Bead LUMI after multiple washes in deionized water ([2]; 45 min): 5.636 mg/mL of beads and 3.25 mg/mL of beads and 2.648 mg/mL of beads
- release in saline from DC Bead LUMI after multiple washes in deionized water ([2]; 60 min): 6.005 mg/mL of beads and 3.196 mg/mL of beads and 2.336 mg/mL of beads
- release in saline from DC Bead LUMI after multiple washes in deionized water ([2]; 120 min): 7.034 mg/mL of beads and 4.188 mg/mL of beads and 2.86 mg/mL of beads
- release in saline from DC Bead LUMI after multiple washes in deionized water ([2]; 180 min): 9.042 mg/mL of beads and 4.426 mg/mL of beads and 3.116 mg/mL of beads
- release in saline from DC Bead LUMI after multiple washes in deionized water ([2]; 240 min): 8.512 mg/mL of beads and 4.6972 mg/mL of beads and 3.19 mg/mL of beads
- release in saline from DC Bead LUMI after multiple washes in deionized water ([2]; 300 min): 8.8991 mg/mL of beads and 4.841 mg/mL of beads and 3.452 mg/mL of beads
- release in saline from DC Bead LUMI after multiple washes in deionized water ([2]; 360 min): 9.596 mg/mL of beads and 5.306 mg/mL of beads and 3.529 mg/mL of beads
- release in saline from DC Bead LUMI after multiple washes in deionized water ([2]; 420 min): 9.49 mg/mL of beads and 5.808 mg/mL of beads and 4.0861 mg/mL of beads
- release in saline from DC Bead LUMI after multiple washes in deionized water ([2]; 480 min): 9.552 mg/mL of beads and 5.445 mg/mL of beads and 3.722 mg/mL of beads
- release in saline from DC Bead LUMI after multiple washes in deionized water ([2]; 1440 min): 10.8637 mg/mL of beads and 7.881 mg/mL of beads and 6.056 mg/mL of beads
- release in saline from DC Bead LUMI after multiple washes in deionized water ([2]; 2880 min): 12.3732 mg/mL of beads and 7.686 mg/mL of beads and 6.267 mg/mL of beads
- release in saline from DC Bead LUMI after multiple washes in deionized water ([2]; 4320 min): 15.5973 mg/mL of beads and 8.751 mg/mL of beads and 7.964 mg/mL of beads
- release in saline from DC Bead LUMI after multiple washes in deionized water ([2]; 8640 min): 14.5448 mg/mL of beads and 10.1106 mg/mL of beads and 7.947 mg/mL of beads
